Tests used:
[1] = target: T1, GST fusion P171H/R172S mutant ALS protein (Oryza sativa subsp. japonica, UniProt Q6K2E8, P171H/R172S); assay: Herbicide sensitivity of ALS protein expressed in E. coli (crude enzyme solution), P171H/R172S; format: biochemical, rice (Oryza sativa var. Kinmaze); conditions: for RS ratio/ predicted RS ratio / Predicted RS ratio: P171H/R172S mutant; for RS ratio: P171H/R172S mutant vs wild type; for Predicted RS ratio: product of RS ratios of the 1-point mutants
T1 construct: made in house; host or cells: E. coli JM109, pGEX-2T(ALS P171H, R172S mutant); crude supernatant
T1 sequence (Q6K2E8 44-644 P171H/R172S): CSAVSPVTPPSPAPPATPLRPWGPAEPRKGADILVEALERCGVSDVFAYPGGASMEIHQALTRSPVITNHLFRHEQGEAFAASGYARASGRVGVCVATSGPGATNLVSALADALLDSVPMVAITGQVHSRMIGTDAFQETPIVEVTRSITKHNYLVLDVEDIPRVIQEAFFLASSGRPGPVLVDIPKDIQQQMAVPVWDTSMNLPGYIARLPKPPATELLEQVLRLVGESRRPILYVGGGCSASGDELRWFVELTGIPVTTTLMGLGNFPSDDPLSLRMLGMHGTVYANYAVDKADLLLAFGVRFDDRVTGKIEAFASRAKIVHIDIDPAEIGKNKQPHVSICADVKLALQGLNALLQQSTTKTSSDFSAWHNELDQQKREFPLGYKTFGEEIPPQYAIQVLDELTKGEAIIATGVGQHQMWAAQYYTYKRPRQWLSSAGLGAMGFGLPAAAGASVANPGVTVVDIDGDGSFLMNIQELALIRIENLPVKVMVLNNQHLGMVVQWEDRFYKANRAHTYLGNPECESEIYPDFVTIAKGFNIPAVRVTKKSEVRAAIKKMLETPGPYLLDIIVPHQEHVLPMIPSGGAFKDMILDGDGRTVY
Protocol: (§1) ALS activity resulting from the mutant ALS protein contained in the eluted fractions apportioned into each test tube for apportioning was measured as follows. A reaction solution to be used in a measurement reaction was prepared by mixing an eluted fraction to be measured with a solution comprising 20 mM sodium pyruvate, 0.5 mM TPP, 0.5 mM MgCl2, 10 μM FAD and 20 mM potassium phosphate buffer (pH 7.5). One ml of this reaction solution was used. After the eluted fraction to be measured was added, the measurement reaction was performed at 30° C. for 40 to 60 minutes. Then, the reaction was stopped by addition of 0.1 ml of 6N sulfuric acid (or 0.25 N sodium hydroxide).
(§2) After the reaction was stopped, the reaction solution was incubated at 60° C. for 10 minutes, thereby converting acetolactate contained in the reaction solution to acetoin.
(§3) Then, to quantify acetoin contained in the reaction solution, 1 ml of 0.5% (w/v) creatine and 1 ml of 5% (w/v) α-naphthol dissolved in 2.5 N sodium hydroxide was added to the reaction solution, followed by incubation at 37° C. for 10 minutes. Acetoin was then quantified by color comparison of the absorbance (at 525 nm) of the reaction solution, thereby evaluating ALS activity. In addition, since the reaction solution contained a small amount of sodium pyruvate, reaction time 0 was used as control.
E. coli transformed with pGEX-2T(ALS-wild) constructed in Example 3(5), E. coli transformed with pGEX-2T(ALS-W548L mutant) constructed in Example 5, E. coli transformed with pGEX-2T(ALS-S627I mutant) constructed in Example 5, E. coli transformed with pGEX-2T(ALS P171H mutant) constructed in Example 6, E. coli transformed with pGEX-2T(ALS R172S mutant) constructed in Example 6, E. coli transformed with pGEX-2T(ALS P171H, R172S mutant) constructed in Example 7, E. coli transformed with pGEX-2T(ALS-P171H, W548L mutant) constructed in Example 8, E. coli transformed with pGEX-2T(ALS-P171H, S627I mutant) constructed in Example 8, and E. coli transformed with pGEX-2T(ALS-P171H, W548L, S627I mutant) constructed in Example 9 were respectively shake-cultured (pre-culture) at 27° C. in 2 ml of LB liquid medium containing ampicillin. These types of E. coli were respectively cultured in 250 ml of LB liquid medium containing ampicillin using 1 ml of the pre-culture solution. After culturing overnight, 1 mM IPTG was added to the media, and then culturing was performed for a further 3 to 4 hours, so that the expression of GST fusion protein was induced. In addition, the cells were stored at −80° C. after washing.
Preparation and purification of ALS from E. coli were performed by the following method. First, the pellet of the transformant E. coli stored at −80° C. was suspended in ALS extraction buffer (potassium phosphate buffer (pH 7.5) containing 30% glycerol and 0.5 mM MgCl2). Specifically, 2.5 ml of the buffer was added to the pellet obtained from 50 ml of the culture solution. The suspension was subjected to ultrasonication (Heat Systems-Ultrasonics, Sonicator W-225R, micro chip, output control 8, interval of approximately 1 second, twice (40 seconds each)), and subjected to centrifugation at 15000×g, 4° C. for 20 minutes, thereby obtaining the supernatant as a crude enzyme solution.
Herbicide sensitivity of the wild type ALS protein and that of mutant ALS protein were examined using the 9 types of crude enzyme solutions obtained in Example 10. Herbicide sensitivity test was performed according to procedures almost the same as those in Example 2. However, in this example, reaction temperature was 37° C., reaction time was 30 minutes, and 10 mM valine was added to the reaction solution to inhibit ALS activity derived from E. coli. Further, three types of herbicides, bispyribac-sodium, pyrithiobac-sodium, and pyriminobac, were used as PC herbicides; chlorsulfuron was used as a sulfonylurea herbicide; and imazaquin was used as an imidazolinon herbicide. […]

[2] = target: T2, mutant ALS protein of Rb line (Oryza sativa subsp. japonica, UniProt Q6K2E8, P171H, form not given); assay: Herbicide sensitivity of partially purified ALS protein (ALS activity inhibition), Rb line; format: biochemical, Oryza sativa var. Kinmaze; conditions: read-out: I50 (nM) Rb; partially purified ALS, 30° C., probit analysis
T2 construct: other: partially purified ALS, 30° C., probit analysis
T2 sequence (Q6K2E8 whole entry P171H/W548L, form open): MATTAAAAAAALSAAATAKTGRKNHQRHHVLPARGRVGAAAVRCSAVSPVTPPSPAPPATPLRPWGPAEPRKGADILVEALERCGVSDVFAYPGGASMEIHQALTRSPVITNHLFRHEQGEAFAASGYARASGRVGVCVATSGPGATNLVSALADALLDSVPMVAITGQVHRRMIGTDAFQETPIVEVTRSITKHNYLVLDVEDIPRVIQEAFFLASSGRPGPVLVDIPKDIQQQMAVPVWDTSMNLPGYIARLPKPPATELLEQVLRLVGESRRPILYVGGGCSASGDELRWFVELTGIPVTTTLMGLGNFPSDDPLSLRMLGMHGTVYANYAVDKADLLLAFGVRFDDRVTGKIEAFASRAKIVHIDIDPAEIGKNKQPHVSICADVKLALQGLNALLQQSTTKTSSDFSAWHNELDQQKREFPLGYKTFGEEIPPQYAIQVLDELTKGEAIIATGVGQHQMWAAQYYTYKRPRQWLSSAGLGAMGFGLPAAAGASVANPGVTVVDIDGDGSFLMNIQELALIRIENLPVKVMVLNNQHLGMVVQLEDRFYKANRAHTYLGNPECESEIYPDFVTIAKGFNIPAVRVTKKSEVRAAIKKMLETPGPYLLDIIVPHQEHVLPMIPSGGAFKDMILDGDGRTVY
Protocol: (§4) First, 200 g or more of resistant mutant was prepared by a liquid culture method (no supplementation with bispyribac-sodium), using a composition as shown in Table 3 excluding Gelrite. Then, about 150 g of the resistant mutant was homogenized using Hiscotron in a volume of buffer-1 [100 mM potassium phosphate buffer (pH 7.5) containing 20% (v/v) glycerol, […] thiamin pyrophosphate (TPP), 10 μM flavin adenine dinucleotide (FAD), 0.5 mM MgCl2, and a volume of polyvinyl polypyrrolidone one-tenth that of tissue volume] 3-fold greater than tissue volume. The homogenate was filtered through nylon gauze, and then centrifuged at 15000×g for 20 minutes. Ammonium sulfate was added to the centrifuged supernatant to 50% saturation, and then allowed to stand in ice for approximately 1 hour. The mixture was again centrifuged at 15000×g for 20 minutes, and then the precipitated fraction was dissolved in approximately 30 ml of buffer-2 [10 mM Tris hydrochloric acid buffer (pH 7.5) containing 20% (v/v) glycerol, 0.5 mM TPP and 0.5 mM MgCl2]. The mixture was again centrifuged at 15000×g for 20 minutes, and then the supernatant fraction was applied to a Sephadex G-25 (Amersham Bioscience). About 40 ml of the fraction that had passed through the column was collected as a crude enzyme solution.
(§5) Next, the protein concentration of the crude enzyme solution was measured by the Bradford method according to the manual of Bio-Rad Protein Assay. The crude enzyme solution was then filtered through a Whatman filter (Whatman), and then the crude enzyme solution in an appropriate protein amount (10 to 15 ml) was applied to three vertically-connected HiTrap Q columns (Amersham Bioscience) using a FPLC device (Amersham Bioscience). After protein component was adsorbed using HiTrap Q, unadsorbed fractions were washed out using buffer-2 having a volume 3 to 5 fold greater than the bed volume. Then, the adsorbed protein component was eluted using an eluate having a volume 10 fold greater than the bed volume (150 ml). Here, the eluate was prepared by dissolving KCl with a linear concentration gradient (0 to 0.4 M) into buffer-2. The eluate containing the eluted protein component was apportioned, 5 ml each, into a plurality of test tubes for apportioning. Further, to stabilize ALS protein contained in the eluted protein component, 0.5 ml of buffer-2 containing 20 mM sodium pyruvate had been previously added to each test tube for apportioning.
as §1, §2, §3
(§6) Using the enzyme solution containing the mutant ALS protein, sensitivity of the mutant ALS protein to bispyribac-sodium, chlorsulfuron and imazaquin was examined. […]

[3] = tested on: mutant ALS protein of Rb line; assay: as above; format: biochemical, Oryza sativa var. Kinmaze; conditions: I50 of the resistant mutant divided by I50 of the wild type
Protocol: as §4, §5, §1, §2, §3, §6

| Compound | IC50 [1] | RS ratio/ predicted RS ratio [1] | RS ratio [1] | Predicted RS ratio [1] | IC50 [2] | RS ratio Rb [3] |
| --- | --- | --- | --- | --- | --- | --- |
| CC(C)C1(C)N=C(c2nc3ccccc3cc2C(=O)O)NC1=O (stereo not drawn) [imazaquin] | 3.9 µM | 1.2 | 1.8 | 1.5 | 609000 nM | 411 |
| COc1cc(OC)nc(Oc2cccc(Oc3nc(OC)cc(OC)n3)c2C(=O)O)n1 [bispyribac-sodium] | 0.048 µM | 0.89 | 7.6 | 8.5 | 247000 nM | 43900 |
| COc1nc(C)nc(NC(=O)NS(=O)(=O)c2ccccc2Cl)n1 [chlorsulfuron] | 5.5 µM | 5.8 | 420 | 72 | 32000 nM | 1850 |

From patent publication US8030547B2, “Gene coding for acetolactate synthase” (priority 2002, dated 2011)
